Results as given in US7850981B2, “Immuno-adjuvant PDT treatment of metastatic tumors” (QLT, Inc., priority 1999, dated 2010).

Tests used:
[1] = system: Lewis Lung Carcinoma (LLC); assay: In vitro lymphocyte proliferation assay (MTS) with lymph node cells of LLC-bearing mice treated with PDT or PDV; format: cell-based, C57B1/6 mice; conditions: mean±standard deviation; lymph nodes 7-10 days after therapy; cultured with LLC antigen; PDV n=7 (ConA responders)
Text: In order to assess the potential usefulness of various adjuvants and treatment parameters in PDV, an in vitro lymphocyte proliferation assay was designed and employed in a murine tumor model. The assay measures tumour-specific lymphocyte (tumor immunity) responses from animals treated with PDT and PDT combined with adjuvant (PDV). This permits the rapid evaluation of various PDT/adjuvant administration protocols.
Female C57B1/6 mice are implanted subcutaneously on the shaved right flank with the Lewis Lung Carcinoma (LLC) cell line. When tumours develop to approximately 5 mm diameter animals are treated with PDT or PDV. PDT is performed by delivering 1.0 mg/kg verteporfin i.v. 30 min prior to illumination of 125 J/cm^2 delivered at 70 mW/cm^2 (treatment time=29 min, 4 sec). […] Animals are monitored for general health and re-growth of the tumour following therapy.
Seven to 10 days following therapy, animals are sacrificed and inguinal, axillary, cervical, and periaortic lymph nodes are aseptically removed. […] Following 3 to 5 days of culture, the degree of proliferation is assessed using 3-(4,5-dimethylthiazol-2-yl)-5-(3-carboxymethoxyphenyl)-2-(4-sulfophenyl)-2H-tetrazolium, inner salt (Owen's reagent, MTS, from PROMEGA™), a variation of the MTT assay which produces a soluble formazan product which absorbs light at 490 nm. […]

M1 (rhabdomyosarcoma) = assay: M1 tumor response after PDT (verteporfin 1.0 mg/kg i.v. + light) with or without intratumoral DETOX B-SE; format: in vivo, mice
Description: DETOX™ B-SE (Stable Emulsion) (LOT # PD: 071899-575-114) is a 1.0% squalene oil-in-water emulsion containing 145 μg/mL cell wall skeleton (CWS) from Mycobacterium phlei and 25 μg/mL monophosphoryl lipid A (MPL) from Salmonella minnesota R595 [Corixa Inc.]. DETOX™ B-SE was prepared according to the manufacturer's recommendations. Two concentrations were prepared by diluting DETOX™ B-SE in sterile PBS: 1:10 (7.25 μg/mL CWS, 1.25 μg/mL MPL) or 1:2.5 (29.0 μg/mL CWS, 5.0 μg/mL MPL). Aliquots (50 μL) were drawn into a tuberculin syringe with a 27 gauge needle prior to intratumoral injection.
Mice used in the experiments described below were implanted intradermally with a suspension of 2×10^4 M1 (rhabdomyosarcoma) cells on the right flank. Approximately six to ten days after implantation, the site was shaved and tumor growth measured using vernier calipers. Only mice bearing tumors 4-6 mm in diameter were selected for use.
Mice treated with PDT or PDV received 1.0 mg/kg of Verteporfin for Injection (VFI) administered intravenously by tail vein injection. Immediately after injection, the mice were placed in a darkened row of an enclosed, ventilated animal rack (condo unit) for 30 minutes. After 30 minutes, each mouse was secured in a metal holder so that the tumor was centered in a 1.0 cm diameter exposure area. The tumor site was exposed to light from an argon pump dye laser for either 14 minutes, to deliver 75 J/cm^2, or 4 minutes and 40 seconds, to deliver 25 J/cm^2. The light doses selected were chosen to deliver either a high PDT dose (75 J/cm^2) or a low PDT dose (25 J/cm 2). The exposure time in seconds was determined by dividing the light dose (J/cm^2) by light Intensity (W/cm^2).
Immediately following illumination and while still immobilized in the metal holder, mice received a single intratumoral injection of 50 μL of the 1:10 dilution DETOX™ B-SE, designed to deliver the adjuvant to the center of the tumor mass. Mice in treatment Groups 2 and 5 received 50 μL of 1:2.5 dilution following PDT. Mice in treatment Groups 3 and 6 received PDT treatment, but not adjuvant. Mice in Group 7 remained untreated and were monitored for tumor growth only. Mice in treatment Groups 1 and 4 were treated with 50 μL of 1:10 dilution following PDT.

[2] = Optimal PDT (75 J/cm^2), day 3 post-PDT
[3] = Optimal PDT (75 J/cm^2), day 7 post-PDT
[4] = Optimal PDT (75 J/cm^2), day 10 post-PDT
[5] = Optimal PDT (75 J/cm^2), day 14 post-PDT
[6] = Optimal PDT (75 J/cm^2), day 17 post-PDT
[7] = Optimal PDT (75 J/cm^2), day 20 post-PDT
[8] = Sub-optimal PDT (25 J/cm^2), day 3 post-PDT
[9] = Sub-optimal PDT (25 J/cm^2), day 7 post-PDT
[10] = Sub-optimal PDT (25 J/cm^2), day 10 post-PDT
[11] = Sub-optimal PDT (25 J/cm^2), day 14 post-PDT
[12] = Sub-optimal PDT (25 J/cm^2), day 17 post-PDT
[13] = Sub-optimal PDT (25 J/cm^2), day 20 post-PDT

Substance: benzoporphyrin derivative monoacid ring A [verteporfin]
- lymphocyte proliferation, percent of lymphocytes without antigen [1]: 108±11%
- Survival (tumour less than 1 cm long, not euthanized) (M1 (rhabdomyosarcoma); [2]): 100%
- Tumor-free mice (M1 (rhabdomyosarcoma); [2]): 100%
- Survival (tumour less than 1 cm long, not euthanized) (M1 (rhabdomyosarcoma); [3]): 100%
- Tumor-free mice (M1 (rhabdomyosarcoma); [3]): 100%
- Survival (tumour less than 1 cm long, not euthanized) (M1 (rhabdomyosarcoma); [4]): 100%
- Tumor-free mice (M1 (rhabdomyosarcoma); [4]): 100%
- Survival (tumour less than 1 cm long, not euthanized) (M1 (rhabdomyosarcoma); [5]): 100%
- Tumor-free mice (M1 (rhabdomyosarcoma); [5]): 90%
- Survival (tumour less than 1 cm long, not euthanized) (M1 (rhabdomyosarcoma); [6]): 100%
- Tumor-free mice (M1 (rhabdomyosarcoma); [6]): 90%
- Survival (tumour less than 1 cm long, not euthanized) (M1 (rhabdomyosarcoma); [7]): 90%
- Tumor-free mice (M1 (rhabdomyosarcoma); [7]): 90%
- Survival (tumour less than 1 cm long, not euthanized) (M1 (rhabdomyosarcoma); [8]): 100%
- Tumor-free mice (M1 (rhabdomyosarcoma); [8]): 100%
- Survival (tumour less than 1 cm long, not euthanized) (M1 (rhabdomyosarcoma); [9]): 100%
- Tumor-free mice (M1 (rhabdomyosarcoma); [9]): 90%
- Survival (tumour less than 1 cm long, not euthanized) (M1 (rhabdomyosarcoma); [10]): 100%
- Tumor-free mice (M1 (rhabdomyosarcoma); [10]): 80%
- Survival (tumour less than 1 cm long, not euthanized) (M1 (rhabdomyosarcoma); [11]): 100%
- Tumor-free mice (M1 (rhabdomyosarcoma); [11]): 50%
- Survival (tumour less than 1 cm long, not euthanized) (M1 (rhabdomyosarcoma); [12]): 80%
- Tumor-free mice (M1 (rhabdomyosarcoma); [12]): 70%
- Survival (tumour less than 1 cm long, not euthanized) (M1 (rhabdomyosarcoma); [13]): 70%
- Tumor-free mice (M1 (rhabdomyosarcoma); [13]): 70%
- animals with tumors that were regressing or had regressed completely by Day 20 (M1 (rhabdomyosarcoma); low dose PDT (25 J/cm^2), adjuvant, where given, high dose (1:2.5)): 2 out of 10 animals
